According to ChEMBL document CHEMBL1201862, “PubChem BioAssay data set” (2004):
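A five-concentration, 48-hour dose response in 96-well plates underlies each endpoint, interpolated linearly between surrounding concentrations. Here, GI50 denotes the concentration required for 50% inhibition of growth.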 Activity calls are given as the source filed them. Rule as the data show it: active = GI50 up to about 1.1 µM and inactive = higher. Where a SMILES comes first, the peptide text is derived from it. The star is where a group is joined. Cbz = O=C(OCc1ccccc1)*; Bn = c1ccc(C*)cc1

Experiments:
Assay in all cases: NCI-60 cell line screen, 48 h
KM12 = tested on: KM12
HCT-15 = tested on: HCT-15
HCT-116 = tested on: HCT-116
K562 = tested on: K562
IGROV-1 = tested on: IGROV-1
SNB-19 = tested on: SNB-19
SK-MEL-5 = tested on: SK-MEL-5
NCI-H522 = tested on: NCI-H522
UO-31 = tested on: UO-31
SK-OV-3 = tested on: SK-OV-3
EKVX = tested on: EKVX
SF-268 = tested on: SF-268
A549 = tested on: A549
SNB-75 = tested on: SNB-75
MOLT-4 = tested on: MOLT-4
NCI-H460 = tested on: NCI-H460
SN12C = tested on: SN12C
OVCAR-8 = tested on: OVCAR-8
HL-60 = tested on: HL-60
HOP-62 = tested on: HOP-62

Row | SMILES | GI50 (KM12) | GI50 (HCT-15) | GI50 (HCT-116) | GI50 (K562) | GI50 (IGROV-1) | GI50 (SNB-19) | GI50 (SK-MEL-5) | GI50 (NCI-H522) | GI50 (UO-31) | GI50 (SK-OV-3) | GI50 (EKVX) | GI50 (SF-268) | GI50 (A549) | GI50 (SNB-75) | GI50 (MOLT-4) | GI50 (NCI-H460) | GI50 (SN12C) | GI50 (OVCAR-8) | GI50 (HL-60) | GI50 (HOP-62)
1 | COc1ccc(N2C(=O)c3c4c(c5c([nH]c6ncccc65)c3C2=O)CCC(C(C)(C)C)C4)cc1 (stereo not given) | > 100 µM (inactive) | > 100 µM | > 100 µM (inactive) | > 10 µM (inactive) | > 100 µM (inactive) | 65.3 µM (inactive) | > 100 µM (inactive) | 67.3 µM (inactive) | > 100 µM (inactive) | 40.6 µM (inactive) | > 100 µM (inactive) | 72.6 µM (inactive) | > 100 µM (inactive) | 16.8 µM (inactive) | > 10 µM (inactive) | > 100 µM (inactive) | > 100 µM (inactive) | > 100 µM (inactive) | > 100 µM (inactive) | 38.6 µM (inactive)
2 | COC(=O)C(Cc1ccc(O)cc1)NC(=O)C(COCc1ccccc1)NC(=O)OCc1ccccc1 (stereo not given) (Cbz-Ser(Bn)-Tyr-OMe; configuration not given here) | 19.8 µM (inactive) | 18.8 µM | 20.9 µM (inactive) | > 100 µM (inactive) | 17.6 µM (inactive) | 16.9 µM (inactive) | 17 µM (inactive) | 22.5 µM (inactive) | 21.9 µM (inactive) | 17.4 µM (inactive) | 22.5 µM (inactive) | 17.5 µM (inactive) | 19.4 µM (inactive) | 14.9 µM (inactive) | > 100 µM (inactive) | 4.13 µM (inactive) | 18.4 µM (inactive) | 17.8 µM (inactive) | > 100 µM (inactive) | 19 µM (inactive)
3 | COCCOc1nc(-c2ccccc2)nc2ccccc12 | 30 µM (inactive) | 19.2 µM | 46.1 µM (inactive) | 35.5 µM (inactive) | 98.2 µM (inactive) | 69.2 µM (inactive) | 25.8 µM (inactive) | 35.3 µM (inactive) | 38.6 µM (inactive) | 46.7 µM (inactive) | 55.8 µM (inactive) | 27.7 µM (inactive) | 37.3 µM (inactive) | 60.8 µM (inactive) | 20.6 µM (inactive) | 19.3 µM (inactive) | 27.5 µM (inactive) | 42 µM (inactive) | 29.2 µM (inactive) | 22.1 µM (inactive)
4 | CC1(C)C[C@H]2C=C(C=O)[C@]34C[C@]3(C(=O)OC4O)[C@H]2C1 (stereo not given in full) | 1.94 µM (inactive) | 1.43 µM | 1.14 µM (inactive) | 4.58 µM (inactive) | 3.05 µM (inactive) | 11.4 µM (inactive) | 1.63 µM (inactive) | 0.443 µM (active) | 1.83 µM (inactive) | 16 µM (inactive) | 1.61 µM (inactive) | 1.61 µM (inactive) | 2.83 µM (inactive) | 1.91 µM (inactive) | 1.53 µM (inactive) | 18.1 µM (inactive) | 3.86 µM (inactive) | 1.1 µM (active) | 1.92 µM (inactive) | 14.2 µM (inactive)
5 | OC(c1ccoc1)c1cc2ccccc2s1 (stereo not given) | > 10 µM (inactive) | > 10 µM | > 10 µM (inactive) | > 10 µM (inactive) | > 10 µM (inactive) | > 10 µM (inactive) | > 10 µM (inactive) | > 10 µM (inactive) | > 10 µM (inactive) | > 10 µM (inactive) | > 10 µM (inactive) | > 10 µM (inactive) | > 10 µM (inactive) | > 10 µM (inactive) | > 10 µM (inactive) | > 10 µM (inactive) | > 10 µM (inactive) | > 10 µM (inactive) | > 10 µM (inactive) | > 10 µM (inactive)
